Results from US20250179103A1, “6-OXODECAHYDROPYRROLO[1,2-A][1,5]DIAZOCINE AND 6-OXODECAHYDRO-4H-PYRROLO[2,1-D][1,5]THIAZOCINE DERIVATIVES AS STAT3 AND STAT6 MODULATORS FOR THE TREATMENT OF CANCER AND INFLAMMATORY CONDITIONS” (Recludix Pharma, Inc., priority 2022, published 2025).

Experiments:
[1] = biological target: T1, Recombinant STAT3 protein (STAT3(G127-I722)) (Homo sapiens, UniProt P40763); test: STAT3 Fluorescence Polarization (FP) Assay; format: binding; details: STAT3(G127-I722) 25 nM, probe 5-FAM-GpYLPQTV-NH2 2 nM, 45-minute incubation
T1 construct: Recombinant STAT3 protein (STAT3(G127-I722))
T1 sequence (P40763 127-722): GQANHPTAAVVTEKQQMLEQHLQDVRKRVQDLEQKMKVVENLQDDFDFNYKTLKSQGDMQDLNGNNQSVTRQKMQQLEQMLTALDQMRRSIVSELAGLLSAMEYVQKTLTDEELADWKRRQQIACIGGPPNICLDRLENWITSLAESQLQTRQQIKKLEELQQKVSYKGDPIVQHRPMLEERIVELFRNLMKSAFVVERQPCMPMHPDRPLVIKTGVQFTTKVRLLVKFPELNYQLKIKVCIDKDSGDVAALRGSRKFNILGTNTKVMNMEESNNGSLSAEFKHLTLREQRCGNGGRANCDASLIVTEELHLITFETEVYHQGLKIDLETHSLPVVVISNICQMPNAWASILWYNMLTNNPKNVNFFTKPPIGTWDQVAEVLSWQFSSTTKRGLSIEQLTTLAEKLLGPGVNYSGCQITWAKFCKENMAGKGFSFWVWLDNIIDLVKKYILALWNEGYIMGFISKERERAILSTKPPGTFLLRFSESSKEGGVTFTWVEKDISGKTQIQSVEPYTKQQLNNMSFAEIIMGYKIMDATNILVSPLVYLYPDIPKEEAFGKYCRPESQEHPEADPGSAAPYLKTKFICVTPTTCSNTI
How it was run: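 Fluorescence polarization after a 45-min room-temperature incubation measured compound displacement of a 2 nM fluorescein-labelled phosphotyrosine peptide (5-FAM-GpYLPQTV-NH2) from 25 nM recombinant STAT3(G127-I722). Buffer was 10 mM HEPES pH 7.4 with 1% DMSO final. IC50s were fitted by nonlinear regression of mP against log concentration.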

[2] = biological target: T2, Recombinant STAT6 protein (STAT6(W123-T658)) (Homo sapiens, UniProt P42226); test: STAT6 Fluorescence Polarization (FP) Assay; format: binding; details: STAT6(W123-T658) 250 nM, probe 5-FAM-ApYKPFQDLI-NH2 2 nM, 45-minute incubation
T2 construct: Recombinant STAT6 protein (STAT6(W123-T658))
T2 sequence (P42226 123-658): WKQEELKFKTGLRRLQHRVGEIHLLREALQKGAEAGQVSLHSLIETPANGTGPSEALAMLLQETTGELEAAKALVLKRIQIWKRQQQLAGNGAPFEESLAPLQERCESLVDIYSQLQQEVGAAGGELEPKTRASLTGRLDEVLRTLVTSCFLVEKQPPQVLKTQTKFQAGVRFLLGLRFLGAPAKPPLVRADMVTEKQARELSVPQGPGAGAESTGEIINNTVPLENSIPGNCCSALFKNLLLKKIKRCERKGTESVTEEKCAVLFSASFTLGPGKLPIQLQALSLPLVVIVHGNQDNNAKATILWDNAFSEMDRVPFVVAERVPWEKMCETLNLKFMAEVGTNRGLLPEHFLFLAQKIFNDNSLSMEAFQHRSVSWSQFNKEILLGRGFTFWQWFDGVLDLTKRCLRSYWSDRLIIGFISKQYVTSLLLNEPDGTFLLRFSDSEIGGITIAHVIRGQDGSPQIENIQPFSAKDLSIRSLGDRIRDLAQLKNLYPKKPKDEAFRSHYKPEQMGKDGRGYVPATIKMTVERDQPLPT
How it was run: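 Displacement of a fluorescent phosphotyrosine peptide (5-FAM-ApYKPFQDLI-NH2, 2 nM) from STAT6(W123-T658) (250 nM), 1% DMSO, pH 7.4 HEPES buffer. After 45 min at room temperature, polarization (mP) was plotted versus log compound concentration and fitted by nonlinear regression to give IC50.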

Row | SMILES | IC50 [1] [µM] | IC50 [2] [µM]
1 | O=C(N[C@H]1CN(CC(F)F)CC[C@H]2CC[C@@H](C(=O)N3C[C@H](c4ccccc4)[C@@H](C(F)F)C3)N2C1=O)c1cc2cc(C(F)(F)P(=O)(O)O)ccc2s1 (relative stereo) [Compound 242, ((2-(((5S,8S,10aR)-3-(2,2-difluoroethyl)-8-((rel-trans)-3-(difluoromethyl)-4-phenylpyrrolidine-1-carbonyl)-6-oxodecahydropyrrolo[1,2-a][1,5]diazocin-5-yl)carbamoyl)benzo[b]thiophen-5-yl)difluoromethyl)phosphonic acid] | 0.1 to 1 | ≤ 0.3
2 | CC(=O)N1CC[C@H]2CC[C@@H](C(=O)Nc3ccccc3)N2C(=O)[C@@H](NC(=O)c2cc3cc(C(F)(F)P(=O)(O)O)ccc3s2)C1 [Compound 181, ((2-(((5S,8S,10aR)-3-acetyl-6-oxo-8-(phenylcarbamoyl)decahydropyrrolo[1,2-a][1,5]diazocin-5-yl)carbamoyl)benzo[b]thiophen-5-yl)difluoromethyl)phosphonic acid] | 1 to 10 | 0.3 to 3
3 | CC(=O)N1CC[C@H]2CC[C@@H](C(=O)N(C)c3ccc(-c4ccccc4)cc3)N2C(=O)[C@@H](NC(=O)c2cc3cc(C(F)(F)P(=O)(O)O)ccc3s2)C1 [Compound 96, ((2-(((5S,8S,10aR)-8-([1,1′-biphenyl]-4-yl(methyl)carbamoyl)-3-acetyl-6-oxodecahydropyrrolo[1,2-a][1,5]diazocin-5-yl)carbamoyl)benzo[b]thiophen-5-yl)difluoromethyl)phosphonic acid] | 1 to 10 | ≤ 0.3
4 | O=C(N[C@H]1CN(C(=O)Cc2ccccc2)CC[C@H]2CC[C@@H](C(=O)Nc3ccccc3-c3ccccc3)N2C1=O)c1cc2cc(C(F)(F)P(=O)(O)O)ccc2[nH]1 [Compound 265, ((2-(((5S,8S,10aR)-8-([1,1′-biphenyl]-2-ylcarbamoyl)-6-oxo-3-(2-phenylacetyl)decahydropyrrolo[1,2-a][1,5]diazocin-5-yl)carbamoyl)-1H-indol-5-yl)difluoromethyl)phosphonic acid] | 1 to 10 | 0.3 to 3
5 | O=C(N[C@H]1CN(C(=O)c2cc3ncccn3n2)CC[C@H]2CC[C@@H](C(=O)N3CCOCC3)N2C1=O)c1ccc2ccc(C(F)P(=O)(O)O)cc2c1 (stereo partly drawn) [Compound 359, (fluoro(7-(((5S,8S,10aR)-8-(morpholine-4-carbonyl)-6-oxo-3-(pyrazolo[1,5-a]pyrimidine-2-carbonyl)decahydropyrrolo[1,2-a] [1,5]diazocin-5-yl)carbamoyl)naphthalen-2-yl)methyl)phosphonic acid] | > 10 | 0.3 to 3
6 | CC(=O)N1CC[C@H]2CC[C@@H](C(=O)N3C[C@H](C#N)C[C@H]3c3ccccc3)N2C(=O)[C@@H](NC(=O)c2cc3cc(C(F)(F)P(=O)(O)O)ccc3s2)C1 (relative stereo) [Compound 206, ((2-(((5S,8S,10aR)-3-acetyl-8-((rel-trans)-4-cyano-2-phenylpyrrolidine-1-carbonyl)-6-oxodecahydropyrrolo[1,2-a][1,5]diazocin-5-yl)carbamoyl)benzo[b]thiophen-5-yl)difluoromethyl)phosphonic acid] | 1 to 10 | 0.3 to 3
7 | CC(=O)N1CC[C@H]2CC[C@@H](C(=O)N3CCC[C@H]3Cc3ccccc3)N2C(=O)[C@@H](NC(=O)c2ccc3ccc(C(F)(F)P(=O)(O)O)cc3c2)C1 [Compound 200, ((7-(((5S,8S,10aR)-3-acetyl-8-((S)-2-benzylpyrrolidine-1-carbonyl)-6-oxodecahydropyrrolo[1,2-a][1,5]diazocin-5-yl)carbamoyl)naphthalen-2-yl)difluoromethyl)phosphonic acid] | 1 to 10 | 0.3 to 3
8 | CN1CCN(c2ccc(C(=O)N3CC[C@H]4CC[C@@H](C(=O)N5CC(c6cccnc6)C5)N4C(=O)[C@@H](NC(=O)c4cc5cc(C(F)(F)P(=O)(O)O)ccc5s4)C3)c(Cl)c2)CC1 [Compound 403, ((2-(((5S,8S,10aR)-3-(2-chloro-4-(4-methylpiperazin-1-yl)benzoyl)-6-oxo-8-(3-(pyridin-3-yl)azetidine-1-carbonyl)decahydropyrrolo[1,2-a][1,5]diazocin-5-yl)carbamoyl)benzo[b]thiophen-5-yl)difluoromethyl) phophonic acid] | ≤ 0.1 | 3 to 30
9 | O=C(N[C@H]1CN(Cc2ccn3ccnc3c2)CC[C@H]2CC[C@@H](C(=O)N3CC(c4cccnc4)C3)N2C1=O)c1cc2cc(CP(=O)(O)O)ccc2s1 [Compound 235, ((2-(((5S,8S,10aR)-3-(imidazo[1,2-a]pyridin-7-ylmethyl)-6-oxo-8-(3-(pyridin-3-yl)azetidine-1-carbonyl)decahydropyrrolo[1,2-a][1,5]diazocin-5-yl)carbamoyl)benzo[b]thiophen-5-yl)methyl)phosphonic acid] | ≤ 0.1 | > 30
10 | CC(=O)N1CC[C@H]2CC[C@@H](C(=O)N(C)c3ccc(C(C)(C)C)cc3)N2C(=O)[C@@H](NC(=O)c2cc3cc(C(F)(F)P(=O)(O)O)ccc3s2)C1 [Compound 185, ((2-(((5S,8S,10aR)-3-acetyl-8-((4-(tert-butyl)phenyl)(methyl)carbamoyl)-6-oxodecahydropyrrolo[1,2-a][1,5]diazocin-5-yl)carbamoyl)benzo[b]thiophen-5-yl)difluoromethyl)phosphonic acid] | 1 to 10 | 0.3 to 3
11 | COc1cc(CN2CC[C@H]3CC[C@@H](C(=O)N4CC(c5cccnc5)C4)N3C(=O)[C@@H](NC(=O)c3cc4cc(C(F)(F)P(=O)(O)O)ccc4s3)C2)ccc1-n1cnc(C)c1 [Compound 275, (difluoro(2-(((5S,8S,10aR)-3-(3-methoxy-4-(4-methyl-1H-imidazol-1-yl)benzyl)-6-oxo-8-(3-(pyridin-3-yl)azetidine-1-carbonyl)decahydropyrrolo[1,2-a][1,5]diazocin-5-yl)carbamoyl)benzo[b]thiophen-5-yl)methyl)phosphonic acid] | ≤ 0.1 | 3 to 30
12 | O=C(N[C@H]1CN(Cc2ccn3ccnc3c2)CC[C@H]2CC[C@@H](C(=O)N3CC(c4cccnc4)C3)N2C1=O)c1cc2cc(C(F)(F)P(=O)(O)O)ccc2s1 [Compound 273, (difluoro(2-(((5S,8S,10aR)-3-(imidazo[1,2-a]pyridin-7-ylmethyl)-6-oxo-8-(3-(pyridin-3-yl)azetidine-1-carbonyl)decahydropyrrolo[1,2-a][1,5]diazocin-5-yl)carbamoyl)benzo[b]thiophen-5-yl)methyl)phosphonic acid] | ≤ 0.1 | 3 to 30
13 | CC(=O)N1CC[C@H]2CC[C@@H](C(=O)Nc3ccc(-c4ccccc4)cc3)N2C(=O)[C@@H](NC(=O)c2cc3cc(C(F)P(=O)(O)O)ccc3s2)C1 (stereo partly drawn) [Compound 17, ((2-(((5S,8S,10aR)-8-([1,1′-biphenyl]-4-ylcarbamoyl)-3-acetyl-6-oxodecahydropyrrolo[1,2-a][1,5]diazocin-5-yl)carbamoyl)benzo[b]thiophen-5-yl)fluoromethyl)phosphonic acid] | 1 to 10 | 0.3 to 3
14 | CC(=O)N1CC[C@H]2CC[C@@H](C(=O)N3CC(C(=O)N4CCOCC4)C3)N2C(=O)[C@@H](NC(=O)c2cc3cc(C(F)(F)P(=O)(O)O)ccc3s2)C1 [Compound 77, ((2-(((5S,8S,10aR)-3-acetyl-8-(3-(morpholine-4-carbonyl)azetidine-1-carbonyl)-6-oxodecahydropyrrolo[1,2-a][1,5]diazocin-5-yl)carbamoyl)benzo[b]thiophen-5-yl)difluoromethyl)phosphonic acid] | 0.1 to 1 | 3 to 30
